Values of other authors in patent EP3094315B1, “PHARMACEUTICAL COMPOSITION COMPRISING ARIPIPRAZOLE OR SALT THEREOF” (Pharmathen S.A., priority 2014, dated 2015).
Read-outs that look alike come from different tables or passages of the source.

For `O=C1CCc2ccc(OCCCCN3CCN(c4cccc(Cl)c4Cl)CC3)cc2N1` [Aripiprazole, 7-{4-[4-(2,3-dichlorophenyl)piperazin-1-yl]butoxy}-3,4-dihydroquinolin-2(1H)-one], the solubility (in N,N-dimethyl formamide) is listed as “freely soluble”, the solubility (in dichloromethane) is listed as “freely soluble” and the solubility (in water) is listed as “practically insoluble”.
